Assay results as given in patent US12441703B2, “Carboxamides as modulators of sodium channels” (VERTEX PHARMACEUTICALS INCORPORATED, priority 2019, dated 2025).

The molecules below were run against human NaV 1.8 (Homo sapiens, UniProt Q9Y5Y9) (assay: E-VIPR assay for detecting and measuring NaV inhibition properties). Settings: E-VIPR assay conducted in the presence of human serum; HEK cells expressing truncated human NaV 1.8; read-out: IC50.
Assay type: cell-based
Method in brief: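 Membrane-potential (coumarin/oxonol) readout after 10 s of 10 Hz biphasic electrical stimulation on E-VIPR. Compounds: 11-point 3-fold dilutions, […], 0.625% DMSO, 30 min at room temperature, human serum optional. Cells: HEK expressing truncated human NaV1.8 co-transduced with KIR2.1.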

Sequence of human NaV 1.8 (Q9Y5Y9 whole entry, looked up, the tested form may be a part): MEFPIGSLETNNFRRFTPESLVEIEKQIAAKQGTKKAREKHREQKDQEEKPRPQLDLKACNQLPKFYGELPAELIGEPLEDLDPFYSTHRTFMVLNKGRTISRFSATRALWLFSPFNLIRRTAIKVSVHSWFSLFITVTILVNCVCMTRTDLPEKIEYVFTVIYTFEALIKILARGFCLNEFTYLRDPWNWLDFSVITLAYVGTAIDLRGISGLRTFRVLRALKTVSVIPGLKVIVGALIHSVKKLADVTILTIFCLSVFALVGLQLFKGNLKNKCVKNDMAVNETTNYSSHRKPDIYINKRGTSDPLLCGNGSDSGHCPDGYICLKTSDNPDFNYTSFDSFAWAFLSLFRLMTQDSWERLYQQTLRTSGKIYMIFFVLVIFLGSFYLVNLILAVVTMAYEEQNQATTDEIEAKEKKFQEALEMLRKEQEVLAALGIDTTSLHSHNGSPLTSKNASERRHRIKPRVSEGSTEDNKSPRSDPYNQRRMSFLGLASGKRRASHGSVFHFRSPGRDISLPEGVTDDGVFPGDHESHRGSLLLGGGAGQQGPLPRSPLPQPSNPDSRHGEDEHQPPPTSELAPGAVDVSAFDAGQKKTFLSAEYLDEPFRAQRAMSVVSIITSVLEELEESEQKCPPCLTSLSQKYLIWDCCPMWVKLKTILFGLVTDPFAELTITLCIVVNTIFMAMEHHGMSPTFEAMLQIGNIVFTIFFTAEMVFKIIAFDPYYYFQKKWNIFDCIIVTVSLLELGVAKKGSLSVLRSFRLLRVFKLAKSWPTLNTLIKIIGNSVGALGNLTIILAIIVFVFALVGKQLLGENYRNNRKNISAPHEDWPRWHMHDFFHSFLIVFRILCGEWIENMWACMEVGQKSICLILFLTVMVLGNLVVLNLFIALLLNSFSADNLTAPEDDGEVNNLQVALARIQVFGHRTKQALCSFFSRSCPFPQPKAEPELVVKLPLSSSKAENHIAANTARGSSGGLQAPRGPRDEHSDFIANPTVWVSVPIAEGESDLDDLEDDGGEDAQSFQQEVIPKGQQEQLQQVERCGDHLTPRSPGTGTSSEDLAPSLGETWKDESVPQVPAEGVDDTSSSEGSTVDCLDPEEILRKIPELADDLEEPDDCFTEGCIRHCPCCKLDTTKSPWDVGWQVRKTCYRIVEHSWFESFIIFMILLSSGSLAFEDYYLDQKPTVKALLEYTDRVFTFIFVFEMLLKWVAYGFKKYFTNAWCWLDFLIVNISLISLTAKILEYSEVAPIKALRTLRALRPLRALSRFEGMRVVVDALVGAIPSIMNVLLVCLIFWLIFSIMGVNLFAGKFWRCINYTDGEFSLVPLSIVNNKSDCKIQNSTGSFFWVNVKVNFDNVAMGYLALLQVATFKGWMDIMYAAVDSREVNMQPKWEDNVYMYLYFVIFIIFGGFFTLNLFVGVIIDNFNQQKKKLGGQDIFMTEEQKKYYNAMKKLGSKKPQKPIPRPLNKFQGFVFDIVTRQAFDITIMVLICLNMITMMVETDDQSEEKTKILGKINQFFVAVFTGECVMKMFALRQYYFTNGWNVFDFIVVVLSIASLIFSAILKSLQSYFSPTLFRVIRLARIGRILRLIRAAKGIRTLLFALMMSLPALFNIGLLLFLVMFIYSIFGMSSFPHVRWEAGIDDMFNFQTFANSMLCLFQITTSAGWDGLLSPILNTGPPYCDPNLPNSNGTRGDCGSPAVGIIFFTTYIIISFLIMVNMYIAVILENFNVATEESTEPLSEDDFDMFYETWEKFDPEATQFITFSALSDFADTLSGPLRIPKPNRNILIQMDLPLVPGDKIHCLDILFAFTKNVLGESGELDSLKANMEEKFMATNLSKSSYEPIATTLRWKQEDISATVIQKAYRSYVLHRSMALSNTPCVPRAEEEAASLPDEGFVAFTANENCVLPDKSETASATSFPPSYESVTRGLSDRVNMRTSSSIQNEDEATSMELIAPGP

Row | Compound | IC50
1 | [2H]C([2H])([2H])Oc1cc(OC(F)(F)F)ccc1Oc1cc(C#CCC(C)C)cc(F)c1C(=O)Nc1ccnc(C(N)=O)c1 [Compound 1021, 4-[[2-fluoro-4-(4-methylpent-1-ynyl)-6-[2-(trideuteriomethoxy)-4-(trifluoromethoxy)phenoxy]benzoyl]amino]pyridine-2-carboxamide] | 41 nM
2 | [2H]C([2H])([2H])Oc1cc(OC(F)(F)F)ccc1Oc1cc(C#CC(C)(C)C)cc(F)c1C(=O)Nc1ccnc(C(N)=O)c1 [Compound 1022] | 190 nM
3 | [2H]C([2H])([2H])Oc1cc(OC(F)(F)F)ccc1Oc1cc(C#CC2CC2)cc(F)c1C(=O)Nc1ccnc(C(N)=O)c1 [Compound 1023] | 100 nM
4 | [2H]C([2H])([2H])Oc1cc(OC(F)(F)F)ccc1Oc1cc(C#CC2CCC2)cc(F)c1C(=O)Nc1ccnc(C(N)=O)c1 [Compound 1024] | 150 nM
5 | COc1cc(OC(F)(F)F)ccc1Oc1ccc(C(F)(F)F)c(SC)c1C(=O)Nc1ccnc(C(N)=O)c1 [Compound 1025, 4-[[6-[2-methoxy-4-(trifluoromethoxy)phenoxy]-2-methylsulfanyl-3-(trifluoromethyl)benzoyl]amino]pyridine-2-carboxamide] | 2 nM
6 | COc1cc(OC(F)(F)F)ccc1Oc1ccc(C(F)(F)F)c(OCCN(C)C)c1C(=O)Nc1ccnc(C(N)=O)c1 [Compound 1027] | > 3000 nM
7 | COc1cc(OC(F)(F)F)ccc1Oc1ccc(C(F)(F)F)c(OCCC2CC2)c1C(=O)Nc1ccnc(C(N)=O)c1 [Compound 1028] | 590 nM
8 | COc1cc(OC(F)(F)F)ccc1Oc1cc(C2=CCC(C(F)(F)F)CC2)ccc1C(=O)Nc1ccnc(C(N)=O)c1 (stereo not shown) [Compound 1029, 4-[[2-[2-methoxy-4-(trifluoromethoxy)phenoxy]-4-[4-(trifluoromethyl)cyclohexen-1-yl]benzoyl]amino]pyridine-2-carboxamide] | 695 nM
9 | COc1cc(OC(F)(F)F)ccc1Oc1cc(C2=CCOC2)ccc1C(=O)Nc1ccnc(C(N)=O)c1 [Compound 1030] | 330 nM
10 | COc1cc(OC(F)(F)F)ccc1Oc1cc(C2=CCC(C(F)(F)F)CC2)ccc1C(=O)Nc1ccnc(C(N)=O)c1 (stereo not shown) [Compound 1031] | 2050 nM
11 | COc1cc(OC(F)(F)F)ccc1Oc1cc(C2CCOC2)ccc1C(=O)Nc1ccnc(C(N)=O)c1 (stereo not shown) [Compound 1033] | 840 nM
12 | COc1cc(OC(F)(F)F)ccc1Oc1cc2c(c(F)c1C(=O)Nc1ccc(C(N)=O)nc1)OCCO2 [Compound 1034, 5-[[5-fluoro-7-[2-methoxy-4-(trifluoromethoxy)phenoxy]-2,3-dihydro-1,4-benzodioxine-6-carbonyl]amino]pyridine-2-carboxamide] | 160 nM
13 | COc1cc(OC(F)(F)F)ccc1Oc1cc2c(c(F)c1C(=O)Nc1ccnc(C(N)=O)c1)OCCO2 [Compound 1035] | 17 nM
14 | [2H]C([2H])([2H])Oc1cc(OC(F)(F)F)ccc1Oc1cc2c(cc1C(=O)Nc1ccnc(C(N)=O)c1)OCCO2 [Compound 1036, 4-[[6-[2-(trideuteriomethoxy)-4-(trifluoromethoxy)phenoxy]-2,3-dihydro-1,4-benzodioxine-7-carbonyl]amino]pyridine-2-carboxamide] | 1750 nM
15 | [2H]C([2H])([2H])Oc1cc(OC(F)(F)F)ccc1Oc1cc2c(cc1C(=O)Nc1ccc(C(N)=O)nc1)OCCO2 [Compound 1037] | > 3000 nM
16 | COc1cc(OC(F)(F)F)ccc1Oc1cc(OC2C=C(F)C2)cc(C)c1C(=O)Nc1ccnc(C(N)=O)c1 (stereo not shown) [Compound 1038, 4-[[4-(3-fluorocyclobut-2-en-1-yl)oxy-2-[2-methoxy-4-(trifluoromethoxy)phenoxy]-6-methyl-benzoyl]amino]pyridine-2-carboxamide] | 170 nM
17 | [2H]C([2H])([2H])Oc1cc(OC(F)(F)F)ccc1Oc1c(C)cc(C(F)(F)F)cc1C(=O)Nc1ccnc(C(N)=O)c1 [Compound 1039, 4-[[3-methyl-2-[2-(trideuteriomethoxy)-4-(trifluoromethoxy)phenoxy]-5-(trifluoromethyl)benzoyl]amino]pyridine-2-carboxamide] | > 3000 nM
18 | COc1c(Oc2cc3c(c(F)c2C(=O)Nc2ccnc(C(N)=O)c2)OCC(C)(C)O3)ccc(OC(F)(F)F)c1F [Compound 1040, 4-(5-fluoro-7-(3-fluoro-2-methoxy-4-(trifluoromethoxy)phenoxy)-2,2-dimethyl-2,3-dihydrobenzo[b][1,4]dioxine-6-carboxamido)picolinamide] | 6 nM
19 | COc1c(Oc2cc3c(c(F)c2C(=O)Nc2ccnc(C(N)=O)c2)OC(C)(C)CO3)ccc(OC(F)(F)F)c1F [Compound 1041, 4-(5-fluoro-7-(3-fluoro-2-methoxy-4-(trifluoromethoxy)phenoxy)-3,3-dimethyl-2,3-dihydrobenzo[b][1,4]dioxine-6-carboxamido)picolinamide] | 38 nM
